Reference: the NIST ThermoML archive (doi:10.1021/je5010214)

Settings: Liquid, Vibrating tube method

CCCCO [butan-1-ol]
Settings | mass density [kg/m3]
343.15 K, 44927 kPa | 804.186
343.15 K, 47908 kPa | 806.033
343.15 K, 50059 kPa | 807.349
343.15 K, 52026 kPa | 808.534
343.15 K, 59944 kPa | 813.181
343.15 K, 61967 kPa | 814.212
343.15 K, 65070 kPa | 815.911
343.15 K, 66059 kPa | 816.518
343.16 K, 34034 kPa | 797.101
343.16 K, 54919 kPa | 810.24
343.16 K, 57986 kPa | 812.021
348.15 K, 88.8 kPa | 765.578
348.15 K, 462.2 kPa | 765.945
348.15 K, 859.8 kPa | 766.355
348.15 K, 974.2 kPa | 766.465
348.15 K, 1974.9 kPa | 767.461
348.15 K, 3051.1 kPa | 768.513
348.15 K, 5094 kPa | 770.529
348.15 K, 10025 kPa | 775.087
348.15 K, 14792 kPa | 779.258
348.15 K, 20111 kPa | 783.649
348.15 K, 22163 kPa | 785.27
348.15 K, 28080 kPa | 789.8
348.15 K, 30149 kPa | 791.333
348.15 K, 32161 kPa | 792.797
348.15 K, 33959 kPa | 793.985
348.15 K, 35045 kPa | 794.751
348.15 K, 37937 kPa | 796.729
348.15 K, 40026 kPa | 798.192
348.15 K, 42066 kPa | 799.57
348.15 K, 47915 kPa | 803.304
348.15 K, 49950 kPa | 804.611
348.15 K, 52167 kPa | 805.991
348.15 K, 55022 kPa | 807.759
348.15 K, 57945 kPa | 809.531
348.15 K, 60030 kPa | 810.761
348.15 K, 64942 kPa | 813.608
348.15 K, 66153 kPa | 814.319
348.16 K, 291.7 kPa | 765.77
348.16 K, 7050.2 kPa | 772.352
348.16 K, 9003.2 kPa | 774.145
348.16 K, 12187 kPa | 777.001
348.16 K, 17899 kPa | 781.843
348.16 K, 25100 kPa | 787.55
348.16 K, 32942 kPa | 793.364
348.16 K, 45051 kPa | 801.465
348.16 K, 62063 kPa | 811.961
353.15 K, 86.2 kPa | 760.995
353.15 K, 336 kPa | 761.273
353.15 K, 572.6 kPa | 761.533
353.15 K, 926 kPa | 761.914
353.15 K, 1016.4 kPa | 762.008
353.15 K, 2992.1 kPa | 764.106
353.15 K, 4963.9 kPa | 766.051
353.15 K, 7000.9 kPa | 768.126
353.15 K, 9062.3 kPa | 770.136
353.15 K, 10005 kPa | 771.015
353.15 K, 12128 kPa | 772.98
353.15 K, 14954 kPa | 775.544
353.15 K, 17977 kPa | 778.173
353.15 K, 19937 kPa | 779.792
353.15 K, 21894 kPa | 781.405
353.15 K, 24908 kPa | 783.869
353.15 K, 27850 kPa | 786.199
353.15 K, 29936 kPa | 787.797
353.15 K, 31876 kPa | 789.263
353.15 K, 32961 kPa | 790.048
353.15 K, 34945 kPa | 791.423
353.15 K, 37913 kPa | 793.571
353.15 K, 40143 kPa | 795.172
353.15 K, 42067 kPa | 796.559
353.15 K, 45002 kPa | 798.55
353.15 K, 48029 kPa | 800.525
353.15 K, 50145 kPa | 801.944
353.15 K, 52082 kPa | 803.184
353.15 K, 55132 kPa | 805.077
353.15 K, 57980 kPa | 806.879
353.15 K, 60098 kPa | 808.146
353.15 K, 65063 kPa | 811.071
353.16 K, 2113.4 kPa | 763.181
353.16 K, 33964 kPa | 790.701
353.16 K, 62043 kPa | 809.275
353.16 K, 66024 kPa | 811.636
358.15 K, 264.1 kPa | 755.935
358.15 K, 508.4 kPa | 756.19
358.15 K, 926.8 kPa | 756.64
358.15 K, 1013.9 kPa | 756.732
358.15 K, 3021.2 kPa | 758.947
358.15 K, 4930 kPa | 760.98
358.15 K, 10073 kPa | 766.29
358.15 K, 12137 kPa | 768.259
358.15 K, 14905 kPa | 770.903
358.15 K, 17041 kPa | 772.871
358.15 K, 17965 kPa | 773.738
358.15 K, 22175 kPa | 777.415
358.15 K, 25059 kPa | 779.849
358.15 K, 28035 kPa | 782.278
358.15 K, 30002 kPa | 783.844
358.15 K, 31978 kPa | 785.37
358.15 K, 32793 kPa | 786.01
358.15 K, 33850 kPa | 786.716
358.15 K, 35027 kPa | 787.554
358.15 K, 37872 kPa | 789.731
358.15 K, 40037 kPa | 791.31
358.15 K, 42100 kPa | 792.749
358.15 K, 47958 kPa | 796.761
358.15 K, 50038 kPa | 798.154
358.15 K, 52081 kPa | 799.474
358.15 K, 55073 kPa | 801.393
358.15 K, 57918 kPa | 803.161
358.15 K, 60043 kPa | 804.453
358.15 K, 62067 kPa | 805.674
358.15 K, 64986 kPa | 807.407
358.15 K, 66109 kPa | 808.067
358.16 K, 95.1 kPa | 755.754
358.16 K, 2083.9 kPa | 757.886
358.16 K, 6993.5 kPa | 763.142
358.16 K, 9030.2 kPa | 765.202
358.16 K, 20162 kPa | 775.665
358.16 K, 45054 kPa | 794.81
363.15 K, 94 kPa | 752.456
363.15 K, 334 kPa | 752.741
363.15 K, 601.7 kPa | 753.061
363.15 K, 892.9 kPa | 753.404
363.15 K, 961.6 kPa | 753.487
363.15 K, 1034.7 kPa | 753.567
363.15 K, 1986 kPa | 754.594
363.15 K, 2940.4 kPa | 755.648
363.15 K, 4979.2 kPa | 757.84
363.15 K, 9959.5 kPa | 762.855
363.15 K, 11971 kPa | 764.806
363.15 K, 14936 kPa | 767.534
363.15 K, 17973 kPa | 770.255
363.15 K, 19940 kPa | 771.991
363.15 K, 24872 kPa | 776.146
363.15 K, 27993 kPa | 778.673
363.15 K, 30062 kPa | 780.285
363.15 K, 31961 kPa | 781.745
363.15 K, 33033 kPa | 782.563
363.15 K, 34000 kPa | 783.178
363.15 K, 35028 kPa | 783.945
363.15 K, 37919 kPa | 786.081
363.15 K, 39916 kPa | 787.488
363.15 K, 42016 kPa | 788.986
363.15 K, 47947 kPa | 793.03
363.15 K, 50050 kPa | 794.458
363.15 K, 52023 kPa | 795.718
363.15 K, 54940 kPa | 797.589
363.15 K, 57917 kPa | 799.479
363.15 K, 59980 kPa | 800.724
363.15 K, 62043 kPa | 802.008
363.15 K, 64924 kPa | 803.734
363.15 K, 66088 kPa | 804.418
363.16 K, 6920.2 kPa | 759.821
363.16 K, 8964.8 kPa | 761.886
363.16 K, 21933 kPa | 773.696
363.16 K, 44987 kPa | 791.029
